From ChEMBL document CHEMBL5518191, “Camptothecin structure simplification elaborated new imidazo[2,1-b]quinazoline derivative as a human topoisomerase I inhibitor with efficacy against bone cancer cells and colon adenocarcinoma” (Eur J Med Chem, 2024)
One block for each compound: values may come before it. Active and inactive are the calls of the source. No cut-off for these calls is given here.

Key:
[1] = target: T1, DNA topoisomerase 1 (Homo sapiens) (UniProt P11387); assay: Inhibition of human DNA topoisomerase 1 at 10 uM using supercoiled DNA as substrate incubated for 30 mins by EtBr staining based agarose gel electrophoresis method relative to control
T1 sequence (whole entry): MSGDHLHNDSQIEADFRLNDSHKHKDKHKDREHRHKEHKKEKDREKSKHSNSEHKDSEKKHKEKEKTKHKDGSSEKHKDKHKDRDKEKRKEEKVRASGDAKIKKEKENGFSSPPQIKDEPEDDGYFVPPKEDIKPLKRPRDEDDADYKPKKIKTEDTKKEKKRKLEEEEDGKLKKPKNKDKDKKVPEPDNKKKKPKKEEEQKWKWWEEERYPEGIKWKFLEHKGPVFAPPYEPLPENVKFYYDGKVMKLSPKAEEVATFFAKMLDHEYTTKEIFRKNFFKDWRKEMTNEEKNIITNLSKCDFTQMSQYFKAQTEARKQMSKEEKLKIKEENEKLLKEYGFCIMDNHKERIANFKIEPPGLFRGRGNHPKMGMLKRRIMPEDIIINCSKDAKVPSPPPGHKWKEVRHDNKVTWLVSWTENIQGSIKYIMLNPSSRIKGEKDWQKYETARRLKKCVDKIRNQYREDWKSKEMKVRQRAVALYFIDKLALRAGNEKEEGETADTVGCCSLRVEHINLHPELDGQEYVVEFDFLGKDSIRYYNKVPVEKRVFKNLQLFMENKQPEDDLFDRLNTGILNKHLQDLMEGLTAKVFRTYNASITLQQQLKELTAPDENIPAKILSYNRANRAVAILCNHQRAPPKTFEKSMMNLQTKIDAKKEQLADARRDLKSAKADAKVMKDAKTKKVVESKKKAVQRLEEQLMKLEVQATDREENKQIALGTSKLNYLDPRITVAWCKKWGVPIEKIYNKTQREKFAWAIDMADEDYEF

HOS [2] = assay: Cytotoxicity against human HOS cells incubated for 48 hrs by MTT assay; format: functional, cell-based
MDA-MB-231 = assay: Cytotoxicity against human MDA-MB-231 cells incubated for 48 hrs by MTT assay; format: functional, cell-based; conditions: MDA-MB-231, 48 h
[3] = Cytotoxicity against human BJ cells incubated for 48 hrs by MTT assay; format: toxicity, cell-based
PC-3 = assay: Cytotoxicity against human PC-3 cells incubated for 48 hrs by MTT assay; format: functional, cell-based; conditions: PC-3, 48 h
MCF7 = assay: Cytotoxicity against human MCF7 cells incubated for 48 hrs by MTT assay; format: functional, cell-based; conditions: MCF7, 48 h
PANC-1 = assay: Cytotoxicity against human PANC-1 cells incubated for 48 hrs by MTT assay; format: functional, cell-based; conditions: PANC-1, 48 h
MG-63 = assay: Cytotoxicity against human MG-63 cells incubated for 48 hrs by MTT assay; format: functional, cell-based
HCT-116 = assay: Cytotoxicity against human HCT-116 cells incubated for 48 hrs by MTT assay; format: functional, cell-based; conditions: HCT-116, 48 h
SAOS-2 = assay: Cytotoxicity against human SAOS-2 cells incubated for 48 hrs by MTT assay; format: functional, cell-based; conditions: SAOS-2, 48 h
DU-145 = assay: Cytotoxicity against human DU-145 cells incubated for 48 hrs by MTT assay; format: functional, cell-based; conditions: DU-145, 48 h
SK-OV-3 = assay: Cytotoxicity against human SK-OV-3 cells incubated for 48 hrs by MTT assay; format: functional, cell-based; conditions: SK-OV-3, 48 h
[4] = Acute toxicity in Swiss albino mouse assessed as change in AST level at 200 mg/kg, po administered for 14 days; format: organism-based; conditions: in vivo, 336 h, time 14 day
[5] = Acute toxicity in Swiss albino mouse assessed as change in GGT level at 200 mg/kg, po administered for 14 days; format: organism-based; conditions: in vivo, 336 h, time 14 day
[6] = Acute toxicity in Swiss albino mouse assessed as change in ALT level at 200 mg/kg, po administered for 14 days; format: organism-based; conditions: in vivo, 336 h, time 14 day
HOS [7] = assay: Induction of cell cycle arrest in human HOS cells assessed as accumulation of cells at S phase after 48 hrs by flow cytometry analysis (reference value: 32.75 %); format: functional
[8] = Acute toxicity in Swiss albino mouse assessed as change in AST level at 1.47 uM/kg, po administered for 14 days; format: organism-based; conditions: in vivo, 336 h, time 14 day
[9] = Antitumor activity against mouse C26 cells xenografted in BALB/c mouse assessed as decrease in tumor volume at 250 mg/kg, po after 1 week; format: functional, C-26; design: scale not given: the % may be the effect or the level left; conditions: time 1 weeks
HOS [10] = assay: Induction of apoptosis in human HOS cells assessed as late apoptotic cells at 5 uM incubated for 48 hrs by Annexin-V FITC/PI staining based flow cytometry analysis (reference value: 0.21%); format: functional
HOS [11] = assay: Induction of apoptosis in human HOS cells assessed as fold decrease in Her2 gene expression at 1.47 uM incubated for 48 hrs by RT-qPCR analysis relative to positive control; format: functional
[12] = Acute toxicity in Swiss albino mouse assessed as change in ALT level at 1.47 uM/kg, po administered for 14 days; format: organism-based; conditions: in vivo, 336 h, time 14 day
[13] = Selectivity ratio of IC50 for human BJ cells to IC50 for human HOS cells
HOS [14] = assay: Induction of cell cycle arrest in human HOS cells assessed as accumulation of cells at pre-G1 phase after 48 hrs by flow cytometry analysis (reference value: 2.18 %); format: functional
HOS [15] = assay: Induction of cell cycle arrest in human HOS cells assessed as accumulation of cells at G0/G1 phase after 48 hrs by flow cytometry analysis (reference value: 52.39 %); format: functional
[16] = Antitumor activity against mouse C26 cells xenografted in BALB/c mouse assessed as decrease in tumor volume at 250 mg/kg, po after 5 weeks; format: functional, C-26; design: scale not given: the % may be the effect or the level left
HOS [17] = assay: Cytotoxicity against human HOS cells cultured as 3D spheroids incubated for 120 hrs; format: functional, cell-based
HOS [18] = assay: Induction of apoptosis in human HOS cells assessed as fold decrease in BCL-2 gene expression at 1.47 uM incubated for 48 hrs by RT-qPCR analysis relative to positive control; format: functional
C-26 = assay: Antitumor activity against mouse C26 cells xenografted in BALB/c mouse assessed as decrease in tumor volume at 250 mg/kg, po after 35 days; format: functional, organism-based; conditions: time 35.0 day
HOS [19] = assay: Induction of apoptosis in human HOS cells assessed as fold increase in p53 gene expression at 1.47 uM incubated for 48 hrs by RT-qPCR analysis relative to positive control; format: functional
HOS [20] = assay: Induction of apoptosis in human HOS cells assessed as fold increase in BAX gene expression at 1.47 uM incubated for 48 hrs by RT-qPCR analysis relative to positive control; format: functional
HOS [21] = assay: Induction of cell cycle arrest in human HOS cells assessed as accumulation of cells at G2/M phase after 48 hrs by flow cytometry analysis (reference value: 14.86 %); format: functional
[22] = Acute toxicity in Swiss albino mouse assessed as change in GGT level at 1.47 uM/kg, po administered for 14 days; format: organism-based; conditions: in vivo, 336 h, time 14 day
HOS [23] = assay: Induction of apoptosis in human HOS cells assessed as necrotic cells at 5 uM incubated for 48 hrs by Annexin-V FITC/PI staining based flow cytometry analysis (reference value: 1.51%); format: functional
HOS [24] = assay: Induction of apoptosis in human HOS cells assessed as early apoptotic cells at 5 uM incubated for 48 hrs by Annexin-V FITC/PI staining based flow cytometry analysis (reference value: 0.46%); format: functional
[25] = Homo sapiens, MG-63, 48 h, read-out: IC50

inhibition [1]: Active
Compound: O=C1NC(=S)n2c1cc1ccccc1c2=O
IC50 (HOS [2]): > 100000 nM | IC50 (MDA-MB-231): > 100 µM | IC50 at 48 h [3]: 258 µM | IC50 (PC-3): > 100 µM | IC50 (MCF7): 12.6 µM

inhibition [1]: Active
Compound: O=C1c2cc3ccccc3c(=O)n2C(=S)N1c1ccccc1
IC50 (HOS [2]): > 100000 nM | IC50 (MDA-MB-231): > 100 µM | IC50 (PC-3): > 100 µM | IC50 (MCF7): > 100 µM

Compound: CC[C@@]1(O)C(=O)OCc2c1cc1n(c2=O)Cc2cc3ccccc3nc2-1 [CAMPTOTHECIN]
IC50 (PANC-1): 233 nM | IC50 (MG-63; [25]): 0.046 µM | IC50 (HOS [2]): 49 nM | IC50 (MDA-MB-231): 0.108 µM | IC50 (HCT-116): 51 nM | IC50 (PC-3): 0.234 µM | IC50 (SAOS-2): 55 nM | IC50 (DU-145): 42 nM | IC50 (SK-OV-3): 241 nM | IC50 (MCF7): 0.324 µM

inhibition [1]: Active
Compound: O=c1c2ccccc2nc2n1c(=O)c1cc3ccccc3c(=O)n12
IC50 (HOS [2]): > 100000 nM | IC50 (MDA-MB-231): 70.7 µM | IC50 at 48 h [3]: 128 µM | IC50 (PC-3): > 100 µM | IC50 (MCF7): > 100 µM

Compound: COc1cccc2c1C(=O)c1c(O)c3c(c(O)c1C2=O)C[C@@](O)(C(=O)CO)C[C@@H]3O[C@H]1C[C@H](N)[C@H](O)[C@H](C)O1 [DOXORUBICIN]
IC50 (PANC-1): 86 nM | IC50 (MG-63; mg-63): Not Active | Activity [4]: 31 U/L | IC50 (HOS [2]): 30 nM | Activity [5]: 13.7 U/L | Activity [6]: 60 U/L | IC50 (MDA-MB-231): 1.15 µM | IC50 (PC-3): 0.567 µM | IC50 (SAOS-2): 144 nM | IC50 (DU-145): 72 nM | IC50 (SK-OV-3): 33 nM | IC50 (MCF7): 0.01 µM

inhibition [1]: Active
Compound: COc1cc2nc3n(c(=O)c2cc1OC)c(=O)c1cc2ccccc2c(=O)n13
IC50 (HOS [2]): > 100000 nM | IC50 (MDA-MB-231): > 100 µM | IC50 (PC-3): > 100 µM | IC50 (MCF7): > 100 µM

inhibition [1]: Active
Compound: O=c1/c(=C\c2ccccc2)n2c(=O)c3ccccc3nc2n1CCN1CCOCC1
Activity (HOS [7]): 27.51% | Activity [8]: 19.5 U/L | IC50 (PANC-1): 19000 nM | IC50 (MG-63; [25]): 17.9 µM | Activity [9]: 35.5% | IC50 (HOS [2]): 1470 nM | IC50 (MDA-MB-231): 5.96 µM | Activity (HOS [10]): 23.58% | fold change (FC) (HOS [11]): 0.237 | Activity [12]: 22 U/L | IC50 at 48 h [3]: 4.25 µM | Ratio IC50 [13]: 2.89 | IC50 (HCT-116): 3670 nM | IC50 (PC-3): > 100 µM | IC50 (SAOS-2): 3200 nM | Activity (HOS [14]): 39.61% | IC50 (DU-145): 3810 nM | Activity (HOS [15]): 61.08% | Activity [16]: 75.36% | Activity (HOS [17]): Active | fold change (FC) (HOS [18]): 0.146 | Activity (C-26): Active | fold change (FC) (HOS [19]): 4.907 | IC50 (SK-OV-3): 3480 nM | IC50 (MCF7): 56.4 µM | fold change (FC) (HOS [20]): 6.143 | Activity (HOS [21]): 11.41% | Activity [22]: 10.3 U/L | Activity (HOS [23]): 12.81% | Activity (HOS [24]): 3.22%
